Measured values: PMC7615676, “Short-course combination treatment for experimental chronic Chagas disease” (Science translational medicine, 2023)
≈ marks a conversion by molar mass, not a printed value. Like-named read-outs stand apart in the source and are kept apart here. One block for each compound: values may come before it.

What was measured:
FaSSIF solubility assay = assay type: physicochemical; settings: pH 6.5, 4 h
Protocol: Solubility of test compounds in fasted simulated intestinal fluid (FaSSIF) was determined at pH 6.5 after 4 h equilibration at rt. An amount of1 mL of FaSSIF buffer (3 mM sodium taurocholate, 0.75 mM lecithin in sodium phosphate buffer at pH 6.5) was added to manually weighed 1 mg of solid compound in a 2 mL HPLC autosampler vial. The resulting suspension was shaken at 900 rpm for 4 h at rt and then transferred to a Multiscreen HTS, 96-well solubility filter plate. The residual solid was removed by filtration. The supernatant solution was quantified by HPLC−UV using single-point calibration of a known concentration of the compound in DMSO. The dynamic range of the assay was 1−1000 μg/mL.

[1] = test system: T. cruzi culture derived trypomastigotes, strain Silvio X10/7 A1; experiment: trypomastigote assay; assay type: cell-based; settings: Trypanosoma cruzi
Protocol: Trypomastigote assays using strain Silvio X10/7 subclone A1 were carried out as described in ([19]). Parasite culture and potency determinations for panel of strains were performed as in ([19]). Strains used were M6241 clone 6 (DTU III), ERA clone 2 (DTU IV), PAH179 clone 5 (DTU V) and CL Brener-Luciferase (PpyRE9h-expressing T. cruzi, same strain that is used in animal model studies ([67])) (DTU VI). […] For Y strain compound exposure time was 3 days. Rate-of-kill assays were carried out as described in ([39]).

[2] = chromatographic LogD assay; assay type: physicochemical; settings: reversed phase HPLC column (Gemini NX C18), pH 7.4; read-out: Chrom logD pH 7.4
Protocol: The chromatographic hydrophobicity index (CHI) values were measured using reversed phase HPLC column (50 mm × 2 mm, 3 μm Gemini NX C18, Phenomenex, U.K.) with fast acetonitrile gradient at starting mobile phase at pH 7.4. CHI values were derived directly from the gradient retention times by using a calibration line obtained for standard compounds. The CHI value approximates to the volume % organic concentration when the compound elutes. CHI was linearly transformed into ChromlogD by least-squares fitting of experimental CHI values to calculated log P (ClogP) values for over 20K research compounds using the following formula: ChromlogD = 0.0857CHI − 2.00. The average error of the assay is ±3 CHI units or ± 0.25 ChromlogD.

[3] = test system: intracellular T. cruzi amastigotes, strain Silvio X10/7 A1; experiment: intracellular T. cruzi amastigote potency assay; assay type: cell-based; settings: Trypanosoma cruzi
Vero host cells = experiment: cytotoxicity against host cells in intracellular amastigote assay; assay type: cell-based; settings: host cell cytotoxicity; for EC50: Chlorocebus sabaeus, Vero
T. cruzi CYP51 = T. cruzi CYP51 (Trypanosoma cruzi, UniProt Q7Z1V1); experiment: T. cruzi CYP51 biochemical assay
[4] = kinetic aqueous solubility (CLND); assay type: physicochemical; settings: phosphate buffered saline, aqueous buffer, kinetic from dmso stock, pH 7.4
Protocol: The eluent is quantified by suitably calibrated flow injection CLND. This assay has a dynamic range between the lower detection limit of 1 and 500 μM, governed by the protocol’s 1:20 dilution into pH 7.4 phosphate buffer solution from nominal 10 mM DMSO stock.

Property Forecast Index = assay type: physicochemical; settings: number of aromatic rings + ChromLogD at pH 7.4
HepG2 cells = experiment: general cytotoxicity assay in HepG2 cells; assay type: cell-based; settings: Homo sapiens, HepG2, 48 h, CellTiter-Glo
Protocol: This assay was previously described ([36]). Briefly, actively growing HepG2 cells were removed from a T-175 TC flask using 5 ml Eagle’s MEM (containing 10 % FBS, 1 % NEAA, 1 % penicillin/ streptomycin. Carbon source is D-glucose at 1 g/l) and dispersed in the medium by repeated pipetting. Seeding density was checked to ensure that new monolayers were not more than 50 % confluent at the time of harvesting. Cell suspension was added to 500 ml of the same medium at a final density of 1.2 x 10^5 cells/ml. This cell suspension was dispensed (25 μl, 3000 cells per well) into 384-well clear-bottom plates using a Multidrop Combi dispenser. Prior to addition of the cell suspension, the screening compounds (250 nl) were predispensed into the plates with an EchoH liquid handler. Plates were incubated for 48 h at 37°C, 5% CO2. After incubation, plates equilibrated at room temperature for 30 min before proceeding to develop the luminescent signal. The signal developer, CellTiter-Glo Reagent, was allowed to equilibrate at room temperature for 30 min and added to the plates ([…]) using a Multidrop Combi dispenser. Plates were left for 10 min at room temperature for stabilization and then read using a ViewLux.

[5] = biological target: T. cruzi complex III (epimastigote lysates) (Trypanosoma cruzi, UniProt Q9T479); experiment: T. cruzi complex III assay; assay type: biochemical; settings: decylubiquinol substrate
Protocol: Complex III activity within these lysates was monitored in the presence and absence of compound 3, compound 5 and related analogues from this series, using decylubiquinol as a pseudo-substrate ([43]).
Measurement of complex III activity and inhibition were performed as described previously ([43]).

[6] = test system: T. cruzi epimastigotes bearing mutations in cytochrome b; experiment: epimastigote drug sensitivity assay, cytochrome b mutant / resistant lines; assay type: cell-based, Trypanosoma cruzi; settings: for EC50: Trypanosoma cruzi
Protocol: (§1) T. cruzi epimastigotes from the Silvio strain (MHOM/BR/78/Silvio; clone X10/7A) were grown at 28°C in RTH/FBS medium ([80]).
(§2) T. cruzi epimastigote assays carried out as described previously ([43]).
Compound-resistant cell lines were generated by subculturing clones of wild-type T. cruzi epimastigotes in the continuous presence of compound 3 or compound 5. Starting at sublethal concentrations, drug concentrations in 3 independent cultures were increased in a stepwise manner, usually by 2-fold. When parasites were able to survive and grow in compound concentrations equivalent to >30-fold their established EC50 value, they were cloned by limiting dilution in the presence of compound. Three independent clones were selected from each compound for further study.

[7] = test system: wild-type T. cruzi epimastigotes; experiment: epimastigote drug sensitivity assay, wild-type; assay type: cell-based; settings: Trypanosoma cruzi
Protocol: as §1, §2

[8] = set-up: method as in PMID 21073628, PMID 20932171; settings: patients; cited from earlier work
[9] = test system: intracellular T. cruzi Silvio X10/7 A1 in Vero cells; experiment: washout outgrowth assay; assay type: cell-based, Trypanosoma cruzi; settings: 8-days treatment, BNZ at 12.5× EC50 (Fig. S7)
Protocol: Washout outgrowth assay: Vero cells were infected overnight in T600 flasks at a multiplicity of infection (MOI) 5 with T. cruzi Silvio X10/7 A1 trypomastigotes, followed by washing of the Vero monolayer to remove free trypomastigotes. 24 hours later the monolayer was trypsinised, 5.3 x 10^6 Vero cells were plated in T75 tissue culture flasks (in 20 ml MEM-Glutamax (ThermoFisher), 1% Fetal Calf Serum (FCS)), and treatment was started. For ten-day treatments, medium with compounds was replaced after the initial 5 days. For 16 day treatments the compounds were replaced every four days. For compound washout, all medium was aspirated, and flasks were washed three times with 10 ml serum-free MEM medium followed by a final aspiration and addition of 20 ml MEM-Glutamax (ThermoFisher) supplemented with 1% FCS. The cultures were then maintained until trypomastigotes were detected by light microscopy. Medium was replaced twice weekly and prior to each medium replacement microscopic evaluation was carried out (five fields per flask) for up to 60 days post washout. Robustness of the data was confirmed by profiling multiple compounds from the pyrrolopyrimidine series in a single experiment (compounds 2,3 and 4 in Fig. 2 and Fig. S17) as well as comparing results from independent experiments (compound 2 in Fig. 2, Fig. S5 and Fig. S7).

[10] = read-out: Trypomastigotes pEC50 (converted)
[11] = intracellular amastigotes Silvio X10/7 A1, 96 h, ± SD, min. three experiments, read-out: Amastigotes pEC50 (converted)
[12] = read-out: Vero pEC50 (converted)

Sequence of T. cruzi CYP51 (Q7Z1V1 whole entry): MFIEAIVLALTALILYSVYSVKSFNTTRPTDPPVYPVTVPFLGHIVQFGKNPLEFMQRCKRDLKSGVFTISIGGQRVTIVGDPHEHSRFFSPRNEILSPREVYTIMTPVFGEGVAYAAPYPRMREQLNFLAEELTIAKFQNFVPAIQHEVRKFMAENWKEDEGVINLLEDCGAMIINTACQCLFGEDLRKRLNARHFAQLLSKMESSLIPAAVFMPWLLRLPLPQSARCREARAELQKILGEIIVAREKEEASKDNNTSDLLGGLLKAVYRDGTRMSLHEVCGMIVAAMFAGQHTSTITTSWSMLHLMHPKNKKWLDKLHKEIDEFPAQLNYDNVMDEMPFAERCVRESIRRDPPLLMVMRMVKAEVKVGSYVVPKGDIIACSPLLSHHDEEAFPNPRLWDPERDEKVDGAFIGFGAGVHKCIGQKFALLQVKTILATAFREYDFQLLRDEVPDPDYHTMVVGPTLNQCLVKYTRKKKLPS
Sequence of T. cruzi complex III (epimastigote lysates) (Q9T479 entry or part of it, one chain of several): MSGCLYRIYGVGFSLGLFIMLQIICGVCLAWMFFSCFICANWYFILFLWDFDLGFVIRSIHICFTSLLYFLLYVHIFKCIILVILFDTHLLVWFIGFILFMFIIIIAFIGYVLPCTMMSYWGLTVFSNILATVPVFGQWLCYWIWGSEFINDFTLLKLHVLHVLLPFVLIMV

FaSSIF pH 6.5 (FaSSIF solubility assay): 456 µg/mL | EC50 ([1]; read-out: Trypomastigotes EC50): 250 nM | EC50 [1, 10]: 251 nM | chromatographic logD [2]: 3.2 | IC50 (T. cruzi CYP51): > 100000 nM | inhibition of recombinant T. cruzi CYP51 (T. cruzi CYP51; direct biochemical assay): did not inhibit | solubility at 1 h [4]: 110 µg/mL (≈ 410 µM) | PFI (Property Forecast Index): 6.2
SMILES: COc1ccccc1-c1c(C)[nH]c2nc(N)nc(C)c12 [Compound 1, 5-(2-methoxyphenyl)-4,6-dimethyl-7H-pyrrolo[2,3-d]pyrimidin-2-amine]
EC50 [3, 11]: 316 nM | EC50 ([3]; read-out: Amastigotes EC50): 320 nM | EC50 (Vero host cells; read-out: Vero EC50): > 50000 nM | EC50 (Vero host cells; [12]): > 31600 nM | Vero pEC50 (Vero host cells): < 4.3 | EC50 (HepG2 cells; read-out: HepG2 EC50): > 100000 nM

SMILES: COc1cc(F)ccc1-c1c(C)n(C)c2nc(N)nc(C)c12 [Compound 5, 5-(4-Fluoro-2-methoxyphenyl)-4,6,7-trimethyl-7H-pyrrolo[2,3-d]pyrimidin-2-amine]
IC50 [5]: 1 ± 0.2 nM | EC50 ([6]; read-out: EC50 F222L): 486 ± 18 nM | EC50 ([6]; read-out: EC50 G36C/L197F cytb line): 1.2 ± 0.1 nM | EC50 ([6]; read-out: EC50 G36C/L197I cytb line): 37 ± 2 nM | EC50 ([6]; read-out: EC50 L197F cytb line): 1.1 ± 0.1 nM | EC50 ([6]; read-out: EC50 L197I): 21 ± 0.5 nM | EC50 ([6]; read-out: EC50 compound 5-resistant clone RES1): 417 ± 11 nM | EC50 ([6]; read-out: EC50 compound 5-resistant clone RES2): 585 ± 30 nM | EC50 ([6]; read-out: EC50 compound 5-resistant clone RES3): 635 ± 33 nM | fold change from WT, L197I ([6]; compound 3-resistant line (L197I)): 10 fold | fold change from WT, F222L ([6]; compound 5-resistant line (F222L)): 224 fold | cross-resistance of G36C and L197I epimastigotes ([6]; versus wild-type): 9 fold | EC50 ([7]; read-out: EC50 wild-type): 2.4 ± 0.1 nM | EC50 ([7]; read-out: EC50 wild-type epimastigotes): 11.3 ± 0.5 nM | EC50 ([7]; Table 2, wild-type epimastigotes, read-out: EC50 WT): 2 ± 0.1 nM

SMILES: CC1CS(=O)(=O)CCN1/N=C/c1ccc([N+](=O)[O-])o1 (stereo not drawn) [NFX, nifurtimox]
discontinuation of treatment prior to completion due to adverse side-effects [8]: ≤ 43%

EC50 ([1]; read-out: Trypomastigotes EC50): > 50000 nM | EC50 [1, 10]: > 50100 nM | chromatographic logD [2]: 6.1 | solubility at 1 h [4]: 14 µg/mL (≈ 20 µM) | PFI (Property Forecast Index): 11.1
SMILES: CC[C@@H]([C@H](C)O)n1ncn(-c2ccc(N3CCN(c4ccc(OC[C@@H]5CO[C@@](Cn6cncn6)(c6ccc(F)cc6F)C5)cc4)CC3)cc2)c1=O [Posaconazole, reference compound]
EC50 [3, 11]: 2.51 nM | EC50 ([3]; read-out: Amastigotes EC50): 3 nM | EC50 (Vero host cells; read-out: Vero EC50): > 50000 nM | EC50 (Vero host cells; [12]): > 50100 nM | washout outcome in combination with BNZ [9]: failed to eliminate all parasites | EC50 (HepG2 cells; read-out: HepG2 EC50): > 100000 nM | EC50 (HepG2 cells; read-out: HepG2 pEC50 (converted)): > 100000 nM
